Several values for one entry are separate records, joined by “and”; a condition that tells them apart may be missing. Identical values can stand only once.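 Exposure lasted 48 hours, with cells grown in 96-well plates and compounds tested at five concentrations. GI50 marks 50% less growth. At the TGI there is no net growth.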
Experiments:
Experiment in all cases: DTP human tumour cell line panel, 48 h
[1] = system: ACHN renal
[2] = system: CAKI-1 renal
[3] = system: COLO 205 colon
[4] = system: HCT-116 colon
[5] = system: HOP-92 NSCLC
[6] = system: IGROV1 ovarian
[7] = system: NCI-H23 lung
[8] = system: NCI-H460 lung
[9] = system: RPMI-8226 leukemia
[10] = system: UACC-257 melanoma
[11] = system: DMS 114 small cell lung
[12] = system: DMS 273 small cell lung
[13] = system: SN12C renal

SMILES | TGI [1] [µM] | TGI [2] [µM] | TGI [3] | TGI [4] | TGI [5] [µM] | TGI [6] | TGI [7] [µM] | TGI [8] [µM] | TGI [9] | TGI [10] [µM] | TGI [11] [µM] | TGI [12] [µM] | TGI [13] [µM] | GI50 [2] [µM] | GI50 [3] [µM] | GI50 [4] [µM] | GI50 [6] [µM] | GI50 [9] [µM] | GI50 [13] [µM] | GI50 [10] [µM]
CC(=O)Nc1ccc(-c2nc3ccccc3s2)cc1 | 92.3 | 53.8 | > 100 µM | > 100 µM | > 100 | > 100 µM | > 100 | > 100 | > 100 µM | > 100 | – | – | – | – | – | – | – | – | – | –
COc1cc(/C=C/C(=O)O)ccc1C(=O)OCc1ccccc1 | – | – | > 100 µM | > 100 µM | > 100 | > 100 µM | > 100 | > 100 | > 100 µM | > 100 | > 100 | > 100 | > 100 | – | – | – | – | – | – | –
COC(=O)CN(C)P(=O)(N1CC1)N1CC1 | > 100 | > 100 | > 100 µM | – | – | > 100 µM | > 100 | – | > 100 µM | > 100 | > 100 | > 100 | > 100 | – | – | – | – | – | – | –
Cc1cccc(C(C)C)c1NC(=O)CC1Sc2ccccc2NC1=O (configuration not stated) | > 100 | > 100 | > 100 µM | > 100 µM | > 100 | > 100 µM | > 100 | > 100 | > 100 µM | > 100 | 85 | > 100 | > 100 | – | – | – | – | – | – | –
CN1CCN(CN2C(=O)C3C4C=CC(C3C2=O)C2C(=O)N(CN3CCN(C)CC3)C(=O)C42)CC1 (configuration not stated) | > 100 | > 100 | > 100 µM | > 62.1 µM | > 100 | > 100 µM | > 78.4 | > 93.6 | 51.4 µM | > 100 | – | – | > 100 | – | – | – | – | – | – | –
CCCC(O)C(NC(=O)CCl)C(=O)O (configuration not stated) | – | > 100 | > 100 µM | > 100 µM | > 100 | > 100 µM | > 100 | > 100 | > 100 µM | > 100 | > 100 | > 100 | > 100 | – | – | – | – | – | – | –
COc1cc2c3c(c4cc(OC)c(OC)cc4c2cc1OC)C(=O)C1CCC(=O)N1C3 (configuration not stated) | 59.7 | 38.9 | > 100 µM | – | 82.2 | 88.5 µM | > 100 | > 100 | > 100 µM | > 100 | – | – | – | – | – | – | – | – | – | –
O=C(CC(=O)c1ccccc1)CC(O)(c1ccccc1)c1ccccc1 | 24.5 | 13.4 | 24.6 µM | 16.6 µM | 19.5 | – | 18.8 | 16.3 | > 100 µM | 29.7 | 5.73 | – | 19.3 | – | – | – | – | – | – | –
CC12CCC3C(CCC4=CC(O)CCC43C=O)C1(O)CCC2c1ccc(=O)oc1 (configuration not stated) | – | 0.0627 | 0.0596 µM and 0.0909 µM | 0.0327 µM and 0.0583 µM | 0.0404 | 0.0936 µM and 0.141 µM | 0.0151 | 0.0131 | 0.237 µM and 0.273 µM | – | 0.00996 | 0.0228 | – | 0.008 | 0.05 | 0.00453 | 0.05 | 0.0238 | 0.05 | 0.05
CC(=O)OC1(C#N)CC2OC1C1C2N=NN1C(=O)OC(C)(C)C (configuration not stated) | > 100 | > 100 | > 100 µM | 28.6 µM | 75.3 | > 100 µM | 77.7 | > 100 | > 100 µM | > 100 | 65.6 | 73.8 | > 100 | – | – | – | – | – | – | –

— PubChem BioAssay (NCI)
